Drawing on the supplement of paper PMC10307832, this text covers relative viability for two cell lines.

Compound in assay [1]: C1=CC2=C(C=C(C(=C2N=C1)O)N=NC3=CC4=C(C=C3)C=C(C=C4)S(=O)(=O)O)S(=O)(=O)O + NC(=O)Nc1cc(-c2cccc(F)c2)sc1C(=O)N[C@H]1CCCNC1 [AZD7762] (partner 0.2 µM)
Description: relative viability (nuclei count vs DMSO), 5 days (fraction); higher = more cells survive. The method in brief:
(§1)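 After 5 days of treatment, lung cancer cells in 1536-well plates were fixed and stained in a single step (final 0.05% Triton X-100, 1% formaldehyde, 1 ug/ml Hoechst) and their nuclei counted on 4× images. Treatment had been applied by pin tool the day after seeding as one drug alone or as a fixed anchor-drug dose with five library-drug doses (not always all listed) in √10 steps. Relative viability is the nuclei count of treated wells divided by that of vehicle wells, and values are medians of duplicate plates.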

Compound in assay [2]: C1=CC2=C(C=C(C(=C2N=C1)O)N=NC3=CC4=C(C=C3)C=C(C=C4)S(=O)(=O)O)S(=O)(=O)O + O=C(CCCCCCC(=O)Nc1ccccc1)NO [Vorinostat] (partner 1 µM)
The description is as above. The method in brief:
as §1

As to RERF-LC-KJ, the relative viability is 0.945 in assay [1] (first compound 0.08 µM); 0.949 in assay [1] (first compound 0.253 µM); 0.924 in assay [1] (first compound 0.8 µM); 1.03 in assay [1] (first compound 2.53 µM); 0.552 in assay [1] (first compound 8 µM); 0.809 in assay [2] (first compound 0.08 µM). For the same cell line, the relative viability in assay [2] (first compound 0.253 µM) came out at 0.811; in assay [2] (first compound 0.8 µM), 0.662; in assay [2] (first compound 2.53 µM), 0.695; in assay [2] (first compound 8 µM), 0.603.
Take SW 900: the relative viability worked out at 0.597 in assay [1] (first compound 0.08 µM); 0.644 in assay [1] (first compound 0.253 µM); 0.598 in assay [1] (first compound 0.8 µM); 0.588 in assay [1] (first compound 2.53 µM); 0.666 in assay [1] (first compound 8 µM); 0.624 in assay [2] (first compound 0.08 µM). The relative viability in assay [2] (first compound 0.253 µM) is 0.399; in assay [2] (first compound 0.8 µM), 0.604; in assay [2] (first compound 2.53 µM), 0.611; in assay [2] (first compound 8 µM), 0.426.
